The test system of series [1] is Toxoplasma gondii. The experiment in a line: Antiparasitic activity against Toxoplasma gondii infected in human foreskin fibroblasts assessed as inhibition of replication measured as decrease in the number of tachyzoites in vacuole at 10 uM after 24 hrs by fluorescence assay. The format is functional, organism-based.
A short description of series [2]: Therapeutic index, ratio of TD50 for human foreskin fibroblasts to IC50 for Toxoplasma gondii infected in human foreskin fibroblasts. To be noted: read-out: TI.
The nature of series [3]: Cytotoxicity against human foreskin fibroblasts after 5 days by colorimetric assay. The series is classed as cell-based. To be noted: human foreskin fibroblasts (HFF cells), read-out: TD50.
The subject of series [4] is Toxoplasma gondii. The experiment in a line: Antiparasitic activity against Toxoplasma gondii infected in human foreskin fibroblasts assessed as tachyzoite growth inhibition after 5 days by colorimetric assay. As to conditions: 120 h. The series is classed as functional, organism-based.

The source of these data is ChEMBL document CHEMBL3352341, “Design, synthesis and biological characterization of thiazolidin-4-one derivatives as promising inhibitors of Toxoplasma gondii” (Eur J Med Chem, 2014).

Active and inactive are the calls of the source. How the calls were made is not given here. Where only a bound is given, the exact number is not on record here.

Regarding `C/C(=N\N=C1/NC(=O)CS1)c1ccncc1`, in the series with Toxoplasma gondii [1], the inhibition entry is “Active”. In addition, in series [2], the selectivity ratio is 11. In addition, the CC50 at 120 h in series [3] was at least 320 µM. Besides, in the series with Toxoplasma gondii [4], the IC50 came to 53 µM and the IC90 came out at 401 µM.
On the same counts, the results for `CCC/C(C)=N\N=C1\SCC(=O)N1Cc1ccccc1` are “Active”, 12, at least 320 µM, 47 µM and 214 µM.
For `O=C1CS/C(=N/N=C\c2c[nH]c3ccccc23)N1`, in that order: “Active”, 3, at least 320 µM, 166 µM and 474 µM.
For `CCCCC/C(C)=N\N=C1/NC(=O)CS1`, in that order: “Active”, 3, 320 µM, 110 µM and 686 µM.
For the compound `CC(C)=C/C(C)=N\N=C1/NC(=O)CS1`, the inhibition result in the series on Toxoplasma gondii [1] was “Active”. For the same compound, the selectivity ratio in series [2] is 6. Further, the CC50 at 120 h in series [3] was at least 320 µM. In the series with Toxoplasma gondii [4], the IC50 was 97 µM and the 90% effect concentration (IC90) was found to be 316 µM.
As for `O=C1CS/C(=N/N=C\c2ccc3c(c2)OCO3)N1`, the inhibition entry in the series with Toxoplasma gondii [1] was “Active”. The CC50 at 120 h in series [3] is at least 320 µM. Moreover, in the series on Toxoplasma gondii [4], the half-inhibitory concentration (IC50) was at least 320 µM.
As for `C/C(=N/N=C1\NC(=O)CS1)c1ccccc1`, the inhibition result in the series with Toxoplasma gondii [1] is “Active”. Also, the selectivity ratio in series [2] came to 5. In addition, in series [3], the CC50 at 120 h was at least 320 µM. Moreover, in the series with Toxoplasma gondii [4], the IC50 turned out to be 114 µM and the 90% effect concentration (IC90) amounted to 262 µM.
As for `C/C(=N/N=C1/SCC(=O)N1Cc1ccccc1)C1CCCCC1`, the inhibition result with Toxoplasma gondii [1] was “Active”. Also, the selectivity ratio in series [2] amounted to 3. Also, the CC50 at 120 h in series [3] was found to be 60 µM. In the series with Toxoplasma gondii [4], the half-maximal inhibitory concentration (IC50) amounted to 24 µM and the 90% effect concentration (IC90) is 71 µM.
Turning to `CC(C)=N/N=C1/SCC(=O)N1Cc1ccccc1`, the inhibition entry in the series with Toxoplasma gondii [1] is “Active”. Also, in series [2], the selectivity ratio was determined as 2. The CC50 at 120 h in series [3] is at least 320 µM. In addition, in the series on Toxoplasma gondii [4], the IC50 turned out to be 232 µM and the IC90 came to 636 µM.
For `CCC/C(C)=N\N=C1/NC(=O)CS1`, in that order: “Active”, 2, at least 320 µM, 262 µM and 1060 µM.
With `CC(C)(C)C1CCCC/C1=N/N=C1/SCC(=O)N1Cc1ccccc1` (configuration not stated), the inhibition entry in the series on Toxoplasma gondii [1] is “Active”. Further, in series [2], the selectivity ratio came to 6. In addition, in series [3], the CC50 at 120 h is at least 320 µM. Besides, in the series on Toxoplasma gondii [4], the half-inhibitory concentration (IC50) was 102 µM and the IC90 was 295 µM.
For `C/C(=N/N=C1\NC(=O)CS1)C1CCCCC1`, the inhibition entry with Toxoplasma gondii [1] was “Active”. Also, the selectivity ratio in series [2] stood at 10. Besides, the CC50 at 120 h in series [3] is at least 320 µM. Besides, in the series on Toxoplasma gondii [4], the IC50 came to 55 µM and the IC90 amounted to 283 µM.
For `C/C(=N/N=C1/SCC(=O)N1Cc1ccccc1)c1ccc2ccccc2c1`, in that order: “Active”, 5, at least 320 µM, 109 µM and 499 µM.
On the same counts, the results for `CC/C(C)=N\N=C1/NC(=O)CS1` are “Active”, 4, at least 320 µM, 133 µM and 1160 µM.
For `O=C1CS/C(=N/N=C\c2cccs2)N1Cc1ccccc1`, in that order: “Active”, under 1, 54 µM, 270 µM and 1660 µM.
For `C=CCC/C(C)=N\N=C1\SCC(=O)N1Cc1ccccc1`, in the series with Toxoplasma gondii [1], the inhibition result is “Active”. In series [2], the selectivity ratio came to 3. Moreover, the CC50 at 120 h in series [3] is at least 320 µM. Besides, in the series with Toxoplasma gondii [4], the IC50 turned out to be 207 µM and the 90% effect concentration (IC90) came to 885 µM.
On the same counts, the results for `O=C1CS/C(=N/N=C2CCCCCC2)N1Cc1ccccc1` are “Active”, 2, at least 320 µM, 255 µM and 1530 µM.
On the same counts, the results for `CC1CCC(=N/N=C2/SCC(=O)N2Cc2ccccc2)CC1` (configuration not stated) are “Active”, 3, 286 µM, 88 µM and 242 µM.
For `CC1CCCC/C1=N/N=C1/SCC(=O)N1Cc1ccccc1` (configuration not stated), in that order: “Active”, 13, at least 320 µM, 43 µM and 171 µM.
In the case of `O=C1CSC(NN=C2CCCCCCC2)=N1`, the inhibition result in the series on Toxoplasma gondii [1] was “Active”. In addition, the selectivity ratio in series [2] amounted to 4. The CC50 at 120 h in series [3] was 309 µM. For the same compound, in the series on Toxoplasma gondii [4], the IC50 came to 79 µM and the IC90 was 290 µM.
On the same counts, the results for `O=C1CS/C(=N/N=C2CCCCC2)N1Cc1ccccc1` are “Active”, 2, at least 320 µM, 255 µM and 662 µM.
On the same counts, the results for `CCCCCC/C(C)=N\N=C1\SCC(=O)N1Cc1ccccc1` are “Active”, 6, 109 µM, 20 µM and 88 µM.
For `C/C(=N/N=C1/SCC(=O)N1Cc1ccccc1)c1cc2ccccc2oc1=O`, the inhibition entry in the series on Toxoplasma gondii [1] was “Active”. The CC50 at 120 h in series [3] was at least 320 µM. In the series on Toxoplasma gondii [4], the IC50 is at least 320 µM.
Regarding `CC1CCC/C1=N/N=C1/SCC(=O)N1Cc1ccccc1` (configuration not stated), the inhibition entry in the series on Toxoplasma gondii [1] is “Active”. The selectivity ratio in series [2] came to 11. Besides, the CC50 at 120 h in series [3] was at least 320 µM. For the same compound, in the series on Toxoplasma gondii [4], the IC50 is 53 µM and the IC90 was found to be 329 µM.
On to `C/C(=N/N=C1\NC(=O)CS1)c1ccc2ccccc2c1`, for which the inhibition entry with Toxoplasma gondii [1] was “Active”. The selectivity ratio in series [2] was 10. Also, the CC50 at 120 h in series [3] was at least 320 µM. For the same compound, in the series on Toxoplasma gondii [4], the IC50 amounted to 56 µM and the IC90 was 175 µM.
On the same counts, the results for `O=C1CS/C(=N/N=C\c2ccncc2)N1Cc1ccccc1` are “Active”, 2, 203 µM, 118 µM and 304 µM.
For `C/C(=N/N=C1\NC(=O)CS1)c1cccs1`, in that order: “Active”, 9, at least 320 µM, 64 µM and 387 µM.
Consider `CCCC/C(CC)=N\N=C1/NC(=O)CS1`, for which, in the series with Toxoplasma gondii [1], the inhibition entry is “Active”. The selectivity ratio in series [2] stood at 6. The CC50 at 120 h in series [3] was at least 320 µM. Further, in the series on Toxoplasma gondii [4], the IC50 came to 89 µM and the IC90 was found to be 288 µM.
For `C/C(=N/N=C1/SCC(=O)N1Cc1ccccc1)c1cccnc1`, in that order: “Active”, 3, 147 µM, 82 µM and 181 µM.
On the same counts, the results for `CC1CC/C(=N/N=C2/SCC(=O)N2Cc2ccccc2)C1` (configuration not stated) are “Active”, 3, at least 320 µM, 184 µM and 845 µM.
For `O=C1CS/C(=N/N=C\c2cccs2)N1`, in that order: “Active”, 4, at least 320 µM, 135 µM and 2680 µM.
On to `CC1CCC/C(=N/N=C2/SCC(=O)N2Cc2ccccc2)C1` (configuration not stated), for which the inhibition entry in the series with Toxoplasma gondii [1] was “Active”. For the same compound, the selectivity ratio in series [2] turned out to be 2. For the same compound, in series [3], the CC50 at 120 h came out at 95 µM. Moreover, in the series on Toxoplasma gondii [4], the IC50 worked out at 58 µM and the IC90 was 248 µM.
For `CC1CCC(=N/N=C2\NC(=O)CS2)CC1` (configuration not stated), in that order: “Active”, 2, at least 320 µM, 226 µM and 777 µM.
On to `O=C1CS/C(=N/N=C\c2cccnc2)N1Cc1ccccc1`, for which the inhibition result in the series on Toxoplasma gondii [1] was “Active”. The selectivity ratio in series [2] turned out to be 2. The CC50 at 120 h in series [3] stood at 239 µM. For the same compound, in the series with Toxoplasma gondii [4], the IC50 was 111 µM and the IC90 was 245 µM.
Turning to `C/C(=N/N=C1\NC(=O)CS1)c1cccnc1`, the inhibition entry in the series on Toxoplasma gondii [1] was “Active”. In addition, the selectivity ratio in series [2] is 8. The CC50 at 120 h in series [3] was at least 320 µM. Moreover, in the series on Toxoplasma gondii [4], the IC50 worked out at 74 µM and the IC90 was determined as 406 µM.
In the case of `O=C1CS/C(=N/N=C\c2ccc3c(c2)OCO3)N1Cc1ccccc1`, the inhibition result in the series on Toxoplasma gondii [1] was “Active”. In addition, the selectivity ratio in series [2] amounted to 2. Moreover, the CC50 at 120 h in series [3] is at least 320 µM. Further, in the series with Toxoplasma gondii [4], the IC50 came out at 290 µM and the IC90 worked out at 2140 µM.
Turning to `O=C1CS/C(=N/N=C\c2ccco2)N1Cc1ccccc1`, the inhibition entry with Toxoplasma gondii [1] is “Active”. In series [2], the selectivity ratio was determined as 5. Besides, the CC50 at 120 h in series [3] is at least 320 µM. Further, in the series on Toxoplasma gondii [4], the IC50 came to 111 µM and the IC90 amounted to 396 µM.
Turning to `C/C(CC(C)C)=N/N=C1/SCC(=O)N1Cc1ccccc1`, the inhibition result in the series on Toxoplasma gondii [1] was “Active”. Moreover, in series [2], the selectivity ratio turned out to be 10. The CC50 at 120 h in series [3] was found to be 220 µM. In the series on Toxoplasma gondii [4], the IC50 was 23 µM and the IC90 stood at 188 µM.
For the compound `C/C(=N/N=C1/SCC(=O)N1Cc1ccccc1)c1ccccn1`, the inhibition result with Toxoplasma gondii [1] was “Active”. In addition, the CC50 at 120 h in series [3] was at least 320 µM. In addition, the IC50 with Toxoplasma gondii [4] was at least 320 µM.
Regarding `C/C(=N/N=C1\NC(=O)CS1)c1ccco1`, the inhibition result in the series with Toxoplasma gondii [1] was “Active”. Moreover, the CC50 at 120 h in series [3] was at least 320 µM. In addition, the IC50 in the series with Toxoplasma gondii [4] was at least 320 µM.
